Measurements as given in US11236047B2 (ASTEX THERAPEUTICS LIMITED, priority 2017, dated 2022).

Assays:
SN40R2 cells = experiment: Protocol B: SN40R2 CellTiter-Glo luminescent cell viability assay; details: for inhibition at 10 µM: read-out: SN40R2 % inhibition at 10, Protocol B, SN40R2, at 10 μM
MDM2-p53 interaction = MDM2-p53 interaction (Homo sapiens (Human), UniProt Q00987); details: for inhibition at 0.001 µM: read-out: MDM2 % inhibition @0.0010
Sequence of MDM2-p53 interaction (Q00987 whole entry): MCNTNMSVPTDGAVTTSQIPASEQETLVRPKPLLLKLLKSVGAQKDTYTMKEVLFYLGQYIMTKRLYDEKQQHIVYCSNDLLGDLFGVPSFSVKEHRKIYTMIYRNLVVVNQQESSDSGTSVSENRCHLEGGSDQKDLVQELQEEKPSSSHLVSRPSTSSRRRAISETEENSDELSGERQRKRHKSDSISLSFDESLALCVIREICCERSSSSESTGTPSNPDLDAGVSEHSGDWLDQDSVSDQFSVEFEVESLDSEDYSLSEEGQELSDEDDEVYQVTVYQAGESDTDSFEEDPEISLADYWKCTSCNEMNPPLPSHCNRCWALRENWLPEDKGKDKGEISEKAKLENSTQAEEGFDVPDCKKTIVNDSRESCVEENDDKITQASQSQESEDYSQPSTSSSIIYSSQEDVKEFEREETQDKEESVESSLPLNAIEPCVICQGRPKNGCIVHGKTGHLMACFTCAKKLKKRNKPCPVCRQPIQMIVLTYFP

| Structure (SMILES) | inhibition at 0.001 µM (MDM2-p53 interaction) [%] | inhibition at 0.003 µM (MDM2-p53 interaction; read-out: MDM2 % inhibition @0.0030) [%] | inhibition at 10 µM (SN40R2 cells) [%] | inhibition at 0.03 µM (MDM2-p53 interaction; read-out: MDM2 % inhibition @0.030) [%] | inhibition at 3 µM (SN40R2 cells; read-out: SN40R2 % inhibition at 3, Protocol B, SN40R2, at 3 μM) [%] |
| --- | --- | --- | --- | --- | --- |
| CCC(O)(c1cc(F)c2c(c1)C(=O)N(Cc1ncc(C#N)cn1)[C@@]2(OC)c1ccc(Cl)cc1)[C@H]1CC[C@H](O)CC1 (stereo partly drawn) [Example 504, 2-{[(1R)-1-(4-chlorophenyl)-7-fluoro-5-{1-hydroxy-1-[trans-4-hydroxycyclohexyl]propyl}-1-methoxy-3-oxo-2,3-dihydro-1H-isoindol-2-yl]methyl}pyrimidine-5-carbonitrile] | 71 | – | 0 | – | – |
| CC[C@@](O)(c1cc(F)c2c(c1)C(=O)N(Cc1ncc(C#N)cn1)[C@@]2(O[C@H]1C[C@@H](O)C1)c1ccc(Cl)cc1)C1(F)CCOCC1 [Example 505, 2-{[(1R)-1-(4-chlorophenyl)-7-fluoro-5-[(1R)-1-(4-fluorooxan-4-yl)-1-hydroxypropyl]-3-oxo-1-[cis-3-hydroxycyclobutoxy]-2,3-dihydro-1H-isoindol-2-yl]methyl}pyrimidine-5-carbonitrile] | 60 | – | 5 | – | – |
| CC[C@](O)(c1cc(F)c2c(c1)C(=O)N(Cc1ncc(C#N)cn1)[C@@]2(O[C@H]1C[C@@H](O)C1)c1ccc(Cl)cc1)C1(F)CCOCC1 [Example 506, 2-{[(1R)-1-(4-chlorophenyl)-7-fluoro-5-[(1S)-1-(4-fluorooxan-4-yl)-1-hydroxypropyl]-3-oxo-1-[cis-3-hydroxycyclobutoxy]-2,3-dihydro-1H-isoindol-2-yl]methyl}pyrimidine-5-carbonitrile] | – | – | 2 | 36 | – |
| CC[C@@](O)(c1cc(F)c2c(c1)C(=O)N(Cc1ncc(C#N)cn1)[C@@]2(O[C@H]1CCOC1)c1ccc(Cl)cc1)C1(F)CCOCC1 [Example 507, 2-{[(1R)-1-(4-chlorophenyl)-7-fluoro-5-[(1R)-1-(4-fluorooxan-4-yl)-1-hydroxypropyl]-3-oxo-1-[(3S)-oxolan-3-yloxy]-2,3-dihydro-1H-isoindol-2-yl]methyl}pyrimidine-5-carbonitrile] | – | 65 | – | – | 5 |
| CC[C@@](O)(c1cc(F)c2c(c1)C(=O)N(Cc1ncc(Cl)cn1)[C@@]2(OCC1(CO)CC1)c1ccc(Cl)cc1)C1CCN(C)CC1 [Example 556, (3R)-3-(4-chlorophenyl)-2-[(5-chloropyrimidin-2-yl)methyl]-4-fluoro-6-[(1S)-1-hydroxy-1-(1-methylpiperidin-4-yl)propyl]-3-{[1-(hydroxymethyl)cyclopropyl]methoxy}-2,3-dihydro-1H-isoindol-1-one] | 91 | – | 14 | – | – |
| CC[C@@](O)(c1cc(F)c2c(c1)C(=O)N(Cc1ncc(Cl)cn1)[C@@]2(O[C@H]1C[C@@H](O)C1)c1ccc(Cl)cc1)C1CCN(C)CC1 [Example 560, (3R)-3-(4-chlorophenyl)-2-[(5-chloropyrimidin-2-yl)methyl]-4-fluoro-6-[(1S)-1-hydroxy-1-(1-methylpiperidin-4-yl)propyl]-3-[cis-3-hydroxycyclobutoxy]-2,3-dihydro-1H-isoindol-1-one] | 30 | – | 3 | – | – |

Now from value to compound, other results behind:

| inhibition at 0.001 µM (MDM2-p53 interaction) [%] | inhibition at 0.003 µM (MDM2-p53 interaction; read-out: MDM2 % inhibition @0.0030) [%] | Structure (SMILES) | inhibition at 10 µM (SN40R2 cells) [%] | inhibition at 0.03 µM (MDM2-p53 interaction; read-out: MDM2 % inhibition @0.030) [%] | inhibition at 3 µM (SN40R2 cells; read-out: SN40R2 % inhibition at 3, Protocol B, SN40R2, at 3 μM) [%] |
| --- | --- | --- | --- | --- | --- |
| 38 | – | CCC(O)(c1cc(F)c2c(c1)C(=O)N(Cc1ncc(C#N)cn1)[C@@]2(OC)c1ccc(Cl)cc1)C1(F)CCN(C)CC1 (single isomer, unassigned) [Example 575] | 14 | – | – |
| 72 | – | CCC(O)(c1cc(F)c2c(c1)C(=O)N(Cc1ncc(Cl)cn1)[C@@]2(OC)c1ccc(Cl)cc1)[C@H]1CC[C@H](O)CC1 (stereo partly drawn) [Example 511, (3R)-3-(4-chlorophenyl)-2-[(5-chloropyrimidin-2-yl)methyl]-4-fluoro-6-{1-hydroxy-1-[trans-4-hydroxycyclohexyl]propyl}-3-methoxy-2,3-dihydro-1H-isoindol-1-one] | 10 | – | – |
| 70 | – | CC[C@@](O)(c1cc(F)c2c(c1)C(=O)N(Cc1ncc(Cl)cn1)[C@@]2(OC)c1ccc(Cl)cc1)C1CCN(C2COC2)CC1 [Example 551, (3R)-3-(4-chlorophenyl)-2-[(5-chloropyrimidin-2-yl)methyl]-4-fluoro-6-[(1S)-1-hydroxy-1-[1-(oxetan-3-yl)piperidin-4-yl]propyl]-3-methoxy-2,3-dihydro-1H-isoindol-1-one] | 13 | – | – |
